In patent publication US20220348572A1, “BRIDGED HETEROCYCLYL-SUBSTITUTED PYRIMIDINE COMPOUND, PREPARATION METHOD THEREFOR, AND PHARMACEUTICAL USE THEREOF” (The National Institutes of Pharmaceutical R&D Co., Ltd., priority 2019, published 2022):

How the values were obtained:
JAK1 kinase = molecular target: T1, JAK1 kinase (Homo sapiens, UniProt P23458); assay: In vitro inhibitory activity on JAK1 kinase (ADP-Glo Kinase Assay); type: biochemical; conditions: JAK1 kinase 4 nM, 1 mM ATP
T1 construct: purchased Invitrogen PV4744
T1 sequence (P23458 866-1154 limits assumed): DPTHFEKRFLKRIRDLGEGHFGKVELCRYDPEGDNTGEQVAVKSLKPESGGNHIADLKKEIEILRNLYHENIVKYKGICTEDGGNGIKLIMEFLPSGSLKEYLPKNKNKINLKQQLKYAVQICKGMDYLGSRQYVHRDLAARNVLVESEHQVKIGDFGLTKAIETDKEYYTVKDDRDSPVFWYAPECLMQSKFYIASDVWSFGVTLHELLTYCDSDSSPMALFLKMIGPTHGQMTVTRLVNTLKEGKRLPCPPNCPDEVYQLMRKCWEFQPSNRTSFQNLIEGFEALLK
In short: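 JAK1 (4 nM final) preincubated with compound 15 min at 25° C., then substrate mix (1 mM ATP, IRS1 0.05 mg/ml) added for 60 min at 25° C. ADP-Glo luminescence read-out; top concentration 10 μM, 3-fold, 10 points, duplicates; IC50 reported in ranged classes.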

AIA in rats = assay: Pharmacodynamic study for AIA in rats (complete Freund's adjuvant, joint swelling score); type: in vivo, Lewis rats; conditions: for Scoring value Day 1: Day 1, Mean ± SD; for Scoring value Day 1 / Scoring value Day 3 / Scoring value Day 7: AIA Lewis rats; for Scoring value Day 3: Day 3, Mean ± SD; for Scoring value Day 7: Day 7, Mean ± SD; for symptoms of arthritis induced by complete Freund's adjuvant (in words): AIA model in rats
Text: Test Example 4: Pharmacodynamic Studies of the Compounds of Example 1, Example 1-b and Example 3 for AIA in Rats
Experimental material: complete Freund's adjuvant (Chondrex, 7027)
Experimental process: The in vivo efficacy of the compounds of the invention was investigated. 8-Week-old female Lewis rats were selected for modeling by complete Freund's adjuvant (J. of Immunology, 2010, 184: 5298-5307) and grouped after 12 days. 7 groups were divided: the model group, the Example 1 low dose group (3 mg/kg), the Example 1 high dose group (30 mg/kg), the Example 1-b low dose group (1 mg/kg), the Example 1-b high dose group (3 mg/kg), the Example 3 low dose group (3 mg/kg) and the Example 3 high dose group (30 mg/kg). The model group was given 0.5% CMC-Na and the rest groups were given the corresponding dose of the compound. The animals were scored according to the degree of joint swelling after 7 days of oral administration (Proc Soc Exp Bio Med 1962, 111: 544-547).

Structure (SMILES) | IC50 (JAK1 kinase) [nM] | Scoring value Day 1 (AIA in rats; 1 mg/kg oral) | Scoring value Day 3 (AIA in rats; 1 mg/kg oral) | Scoring value Day 7 (AIA in rats; 1 mg/kg oral) | Scoring value Day 1 (AIA in rats; 3 mg/kg oral) | Scoring value Day 3 (AIA in rats; 3 mg/kg oral) | Scoring value Day 7 (AIA in rats; 3 mg/kg oral) | symptoms of arthritis induced by complete Freund's adjuvant (in words) (AIA in rats) | Scoring value Day 1 (AIA in rats; 30 mg/kg oral) | Scoring value Day 3 (AIA in rats; 30 mg/kg oral) | Scoring value Day 7 (AIA in rats; 30 mg/kg oral)
Cn1cc(Nc2nccc(C3=C[C@H]4CC[C@@H](C3)N4C(=O)[C@@H]3CC3(F)F)n2)cn1 [Compound 1-b, ((S)-2,2-difluorocyclopropyl)((1R,5S)-3-(2-((1-methyl-1H-pyrazol-4-yl)amino)pyrimidin-4-yl)-8-azabicyclo[3.2.1]oct-2-en-8-yl)methanone] | < 100 | 3.30 ± 2.67 | 3.10 ± 3.51 | 3.30 ± 3.71 | 3.30 ± 2.67 | 0.30 ± 0.95 | 1.50 ± 3.75 | significantly inhibit | – | – | –
Cn1cc(Nc2nccc(C3=CC4CCC(C3)N4C(=O)NCC(F)(F)F)n2)cn1 (stereo not drawn) [Compound 3, 3-(2-((1-methyl-1H-pyrazol-4-yl)amino)pyrimidin-4-yl)-N-(2,2,2-trifluoroethyl)-8-azabicyclo[3.2.1]oct-2-ene-8-carboxamide] | 100 to 300 | – | – | – | 3.78 ± 1.92 | 3.78 ± 1.72 | 1.33 ± 0.87 | significantly inhibit | 3.44 ± 1.94 | 0.56 ± 0.53 | 0.00 ± 0.00
Cn1cc(Nc2nccc(C3=CC4CCC(C3)N4C(=O)[C@@H]3CC3(F)F)n2)cn1 (stereo partly drawn) [Compound 1, ((S)-2,2-difluorocyclopropyl)(3-(2-((1-methyl-1H-pyrazol-4-yl)amino)pyrimidin-4-yl)-8-azabicyclo[3.2.1]oct-2-en-8-yl)methanone] | < 100 | – | – | – | 3.78 ± 2.54 | 2.67 ± 1.22 | 0.22 ± 0.44 | significantly inhibit | 4.11 ± 2.52 | 0.44 ± 0.73 | 0.00 ± 0.00
